One experiment addresses T1, FAAH (Homo sapiens, UniProt O00519).
T1 sequence (O00519 1-579): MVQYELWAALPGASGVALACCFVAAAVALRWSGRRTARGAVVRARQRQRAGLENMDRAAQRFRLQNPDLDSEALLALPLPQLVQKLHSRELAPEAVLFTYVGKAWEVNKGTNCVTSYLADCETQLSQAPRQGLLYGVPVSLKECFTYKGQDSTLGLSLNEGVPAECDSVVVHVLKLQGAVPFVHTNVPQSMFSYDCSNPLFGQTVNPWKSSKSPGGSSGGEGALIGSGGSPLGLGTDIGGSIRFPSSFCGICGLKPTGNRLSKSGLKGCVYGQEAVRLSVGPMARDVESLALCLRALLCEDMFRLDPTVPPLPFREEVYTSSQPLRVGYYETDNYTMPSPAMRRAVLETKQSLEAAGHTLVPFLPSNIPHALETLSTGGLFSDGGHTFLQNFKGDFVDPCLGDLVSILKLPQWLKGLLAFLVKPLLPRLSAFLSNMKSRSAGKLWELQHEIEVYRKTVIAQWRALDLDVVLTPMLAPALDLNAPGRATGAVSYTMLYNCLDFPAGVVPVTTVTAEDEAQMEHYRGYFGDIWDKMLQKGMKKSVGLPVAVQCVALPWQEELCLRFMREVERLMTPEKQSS
Kind of experiment: Assay Method 1: FAAH assay, 3H-anandamide hydrolysis in homogenate of T84 cells or SK-N-MC cells transfected with human FAAH.

Another experiment deals with T2, Rat FAAH-1 (Rattus norvegicus, UniProt P97612).
T2 sequence (P97612 1-579): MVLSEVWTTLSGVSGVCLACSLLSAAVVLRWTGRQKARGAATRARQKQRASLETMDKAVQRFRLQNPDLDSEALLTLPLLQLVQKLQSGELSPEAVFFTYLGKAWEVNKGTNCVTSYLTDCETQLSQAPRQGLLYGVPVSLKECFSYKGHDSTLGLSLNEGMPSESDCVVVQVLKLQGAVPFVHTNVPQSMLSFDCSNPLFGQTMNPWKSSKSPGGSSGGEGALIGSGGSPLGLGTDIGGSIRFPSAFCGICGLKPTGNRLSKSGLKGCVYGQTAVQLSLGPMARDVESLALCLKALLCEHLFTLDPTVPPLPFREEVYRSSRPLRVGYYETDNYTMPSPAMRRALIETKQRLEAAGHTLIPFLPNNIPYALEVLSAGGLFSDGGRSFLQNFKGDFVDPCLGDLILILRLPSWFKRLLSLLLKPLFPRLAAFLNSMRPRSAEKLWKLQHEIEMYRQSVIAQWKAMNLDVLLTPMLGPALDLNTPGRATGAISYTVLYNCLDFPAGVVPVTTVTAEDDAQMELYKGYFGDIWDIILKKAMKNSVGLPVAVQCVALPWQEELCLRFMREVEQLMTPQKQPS
The experiment can be described thus: Assay Method 2: rat FAAH-1 assay, 3H-anandamide hydrolysis in homogenate of SK-N-MC cells transfected with rat FAAH.

Where a name gives a salt, the structure may show the parent alone.

Usually IC50 stands for the concentration that gives 50% inhibition. With `O[C@@H](CNc1cc(-c2ccc(Cl)c(Cl)c2)ncn1)c1ccccc1` [Example 95, (1R)-2-{[6-(3,4-Dichlorophenyl)-pyrimidin-4-yl]amino}-1-phenylethanol], the IC50 on FAAH stood at 18 nM; on Rat FAAH-1, 66 nM.

For `OC(CNc1cc(-c2ccc(C(F)(F)F)c(Cl)c2)ncn1)c1cc(C(F)(F)F)ccc1F` (stereo not shown) [Example 205, 2-({6-[3-Chloro-4-(trifluoromethyl)phenyl]pyrimidin-4-yl}amino)-1-[2-fluoro-5-(trifluoromethyl)phenyl]ethanol], the IC50 at FAAH was found to be 80 nM; against Rat FAAH-1, 14 nM.

Consider `O[C@@H](CNc1cc(-c2cc(F)cc(C(F)(F)F)c2)ncn1)c1ccccc1` [Example 42, (1R)-2-({6-[3-Fluoro-5-(trifluoromethyl)phenyl]pyrimidin-4-yl}amino)-1-phenylethanol trifluoroacetic acid salt], for which the figures for the IC50 against FAAH and against Rat FAAH-1 were 206 nM and 793 nM, respectively.

Consider `CN(C)c1nc(NC[C@H](O)c2ccccc2)cc(-c2ccc(C(F)(F)F)c(Cl)c2)n1` [Example 101, (1R)-2-({6-[3-Chloro-4-(trifluoromethyl)phenyl]-2-(dimethylamino)pyrimidin-4-yl}amino)-1-phenylethanol trifluoroacetic acid salt], for which the results for the IC50 on FAAH and on Rat FAAH-1 were 32 nM and 80 nM, respectively.

Take `O[C@@H](CNc1cc(-c2ccc3[nH]ccc3c2)ncn1)c1ccccc1` [Example 85, (1R)-2-{[6-(1H-Indol-5-yl)pyrimidin-4-yl]amino}-1-phenylethanol trifluoroacetic acid salt]: the results for the 50% inhibitory concentration (IC50) against FAAH and at Rat FAAH-1 were 18 nM and 5000 nM, respectively.

Regarding `OC(CNc1cc(-c2ccsc2)ncn1)c1ccccc1` (stereo not shown) [Example 245, 1-Phenyl-2-(6-thiophen-3-yl-pyrimidin-4-ylamino)-ethanol], the IC50 on FAAH and against Rat FAAH-1 was over 10000 nM throughout.

As for `OC(CNc1cc(-c2ccc(C(F)(F)F)c(Cl)c2)ncn1)c1nccs1` (stereo not shown) [Example 169, 2-({6-[3-Chloro-4-(trifluoromethyl)phenyl]pyrimidin-4-yl}amino)-1-(1,3-thiazol-2-yl)ethanol], the IC50 is 6000 nM against FAAH and 8000 nM against Rat FAAH-1.

Take `Oc1ccc(-c2cc(NCC(O)c3ccccc3)ncn2)cc1` (stereo not shown) [Example 238, 4-[6-(2-Hydroxy-2-phenyl-ethylamino)-pyrimidin-4-yl]-phenol]: the IC50 on FAAH is 7000 nM; at Rat FAAH-1, over 10000 nM.

In the case of `O[C@@H](CNc1cc(-c2cccc(C(F)(C(F)(F)F)C(F)(F)F)c2)ncn1)c1ccccc1` [Example 220, (1R)-Phenyl-2-{6-[3-(1,2,2,2-tetrafluoro-1-trifluoromethyl-ethyl)-phenyl]-Pyrimidin-4-ylamino}-ethanol], the IC50 against FAAH was 42 nM; against Rat FAAH-1 it was 690 nM.

As for `N#Cc1cc(C(O)CNc2cc(-c3ccc(C(F)(F)F)c(Cl)c3)ncn2)ccc1F` (stereo not shown) [Example 210], the IC50 against FAAH and against Rat FAAH-1 was 20 nM throughout.

As for `O[C@@H](CNc1ncnc(-c2ccc(C(F)(F)F)c(Cl)c2)n1)c1ccccc1` [Example 104, (1R)-2-({4-[3-Chloro-4-(trifluoromethyl)phenyl]-1,3,5-triazin-2-yl}amino)-1-phenylethanol trifluoroacetic acid salt], the IC50 on FAAH stood at 130 nM; on Rat FAAH-1 it was 58 nM.

For `OC(CNc1cc(-c2ccc(C(F)(F)F)c(Cl)c2)ncn1)c1cc(C(F)(F)F)cc(C(F)(F)F)c1` (stereo not shown) [Example 217, 1-[3,5-Bis(trifluoromethyl)phenyl]-2-({6-[3-chloro-4-(trifluoromethyl)phenyl]pyrimidin-4-yl}amino)ethanol], the IC50 is over 10000 nM on FAAH and 8000 nM against Rat FAAH-1.

Turning to `CSc1ccc(C(O)CNc2cc(-c3ccc(C(F)(F)F)c(Cl)c3)ncn2)cc1` (stereo not shown) [Example 167, 2-({6-[3-Chloro-4-(trifluoromethyl)phenyl]pyrimidin-4-yl}amino)-1-[4-(methylsulfanyl)phenyl]ethanol], the 50% inhibitory concentration (IC50) on FAAH amounted to 60 nM; at Rat FAAH-1 it was 20 nM.

With `OC(CNc1cc(-c2ccc(C(F)(F)F)c(Cl)c2)ncn1)c1ccc2c(c1)OCCCO2` (stereo not shown) [Example 204, 2-({6-[3-Chloro-4-(trifluoromethyl)phenyl]pyrimidin-4-yl}amino)-1-(3,4-dihydro-2H-1,5-benzodioxepin-7-yl)ethanol], the values for the IC50 against FAAH and against Rat FAAH-1 were 548 nM and 82 nM, respectively.

Take `O[C@@H](CNc1cc(-c2ccc3c(C(F)(F)C(F)(F)F)noc3c2)ncn1)c1ccccc1` [Example 188, (1R)-2-({6-[3-(pentafluoroethyl)-1,2-benzisoxazol-6-yl]pyrimidin-4-yl}amino)-1-phenylethanol trifluoroacetic acid salt]: the IC50 on FAAH was 24 nM; on Rat FAAH-1, 35 nM.

On to `O[C@@H](CNc1cc(-c2ccc3ncccc3c2)ncn1)c1ccccc1` [Example 170, (1R)-1-Phenyl-2-[(6-quinolin-6-ylpyrimidin-4-yl)amino]ethanol], for which the IC50 against FAAH stood at 81 nM; against Rat FAAH-1, 4000 nM.

In the case of `N#Cc1cccc(C(O)CNc2cc(-c3ccc(C(F)(F)F)c(Cl)c3)ncn2)c1` (stereo not shown) [Example 206, 3-[2-({6-[3-Chloro-4-(trifluoromethyl)phenyl]pyrimidin-4-yl}amino)-1-hydroxyethyl]benzonitrile], the figures for the IC50 against FAAH and against Rat FAAH-1 were 25 nM and 15 nM, respectively.

Turning to `N#Cc1cc(-c2cc(NC[C@H](O)c3ccccc3)ncn2)ccc1F` [Example 89, 2-Fluoro-5-(6-{[(2R)-2-hydroxy-2-phenylethyl]amino}pyrimidin-4-yl)benzonitrile trifluoroacetic acid salt], the IC50 against FAAH is 1600 nM; at Rat FAAH-1 it was 1400 nM.

In the case of `O[C@@H](CNc1cc(-c2ccc(OCC3CC3)cc2)ncn1)c1ccccc1` [Example 32, (1R)-2-({6-[4-(Cyclopropylmethoxy)phenyl]pyrimidin-4-yl}amino)-1-phenylethanol trifluoroacetic acid salt], the IC50 on FAAH is 92 nM; against Rat FAAH-1, 1000 nM.

Turning to `COc1ccc(C(O)CNc2cc(-c3ccc(C(F)(F)F)c(Cl)c3)ncn2)cc1Cl` (stereo not shown) [Example 203, 1-(3-Chloro-4-methoxyphenyl)-2-({6-[3-chloro-4-(trifluoromethyl)phenyl]pyrimidin-4-yl}amino)ethanol], the half-inhibitory concentration (IC50) stood at 270 nM on FAAH and 200 nM against Rat FAAH-1.

For the compound `COc1cc(C(O)CNc2cc(-c3ccc(OC(F)(F)F)cc3)ncn2)ccc1O` (stereo not shown) [Example 112, 4-{1-Hydroxy-2-[(6-{4-[(trifluoromethyl)oxy]phenyl}pyrimidin-4-yl)amino]ethyl}-2-(methyloxy)phenol], the half-inhibitory concentration (IC50) was 524 nM at FAAH and 760 nM on Rat FAAH-1.

In the case of `N#Cc1ccc(-c2cc(NCC(O)c3ccccc3)ncn2)cc1` (stereo not shown) [Example 226, 4-{6-[(2-Hydroxy-2-phenylethyl)amino]pyrimidin-4-yl}benzonitrile], the IC50 was found to be 341 nM on FAAH and 663 nM against Rat FAAH-1.

For `OC(CNc1cc(-c2ccc(C(F)(F)F)c(Cl)c2)ncn1)c1ccc(Cl)c(F)c1` (stereo not shown) [Example 133, 1-(4-Chloro-3-fluoro-Phenyl)-2-[6-(3-chloro-4-trifluoromethyl-phenyl)-pyrimidin-4-ylamino]-ethanol trifluoroacetic acid salt], the IC50 is 30 nM at FAAH and 15 nM against Rat FAAH-1.

In the case of `OC(CNc1cc(-c2ccc(C(F)(F)F)c(Cl)c2)ncn1)c1ccc(C(F)(F)F)c(F)c1` (stereo not shown) [Example 197, 2-({6-[3-Chloro-4-(trifluoromethyl)phenyl]pyrimidin-4-yl}amino)-1-[3-fluoro-4-(trifluoromethyl)phenyl]ethanol], the IC50 turned out to be 100 nM at FAAH and 34 nM against Rat FAAH-1.

`Cc1cc(C)cc(-c2cc(NC[C@H](O)c3ccccc3)ncn2)c1` [Example 40, (1R)-2-{[6-(3,5-Dimethylphenyl)pyrimidin-4-yl]amino}-1-phenylethanol trifluoroacetic acid salt]: the figures for the IC50 on FAAH and at Rat FAAH-1 were 766 nM and over 10000 nM, respectively.

Take `N#Cc1ccc(-c2cc(NC[C@H](O)c3ccccc3)ncn2)cn1` [Example 77, 5-(6-{[(2R)-2-Hydroxy-2-phenylethyl]amino}pyrimidin-4-yl)pyridine-2-carbonitrile]: the results for the IC50 against FAAH and against Rat FAAH-1 were 1000 nM and 2200 nM, respectively.

The values are drawn from patent US8598202B2, “Aryl-hydroxyethylamino-pyrimidines and triazines as modulators of fatty acid amide hydrolase” (Janssen Pharmaceutica NV, priority 2008, dated 2013).
